According to article PMC9917735, “Optimization of the Hemolysis Assay for the Assessment of Cytotoxicity” (International Journal of Molecular Sciences, 2023):
Where two headings read alike, the source gives them in different places. No end group written: not given here.

Assays:
[1] = system: washed human erythrocytes; assay: Hemolysis assay, washed human erythrocytes
[2] = system: human whole blood; details: human whole blood, 60 min 37 °C; for Calculated hemolysis ratio: peptides 100 μM, neg. PBS, 3 x 2 replicates
[3] = system: rabbit whole blood; details: cf. Tables S3 and S4; 100 μM
Excerpt: (§1) Cytotoxicity studies are important during characterization of novel compounds or materials intended for interactions within human biological systems in vivo. Evaluation of the extent to which the compound induces disruption of the membrane of erythrocytes (red blood cells), thereby causing release of cellular content, often constitutes an initial step in such cytotoxicity assessments. The assay used in this context is generally referred to as the hemolysis assay, which has the advantages of being cheap, accessible, and simple to perform. Blood is drawn from a human or an animal, and next, the washed erythrocytes are incubated together with the compound or material under investigation. If the compound causes hemolysis, hemoglobin (along with other cellular constituents) will be released into the supernatant.
(§2) Blood from mice, rats, and rabbits was provided by the Department of Comparative Medicine at Oslo University Hospital (Marianne Aannestad). For mice and rats, the blood was collected from the heart by using 25 G and 21 G needles, respectively, whereas for rabbits, the blood was collected by free bleed through the ear using a yellow neoflon (24 G). All animals were wild type and anesthetized prior to the procedure.
(§3) All blood was collected in Lithium Heparin tubes 4 mL (Greiner Bio-One, Kremsmünster, Austria) or Coagulation sodium citrate 3.2% tubes 3 mL (Greiner Bio-One).
(§4) AMP 2 contained an N-terminal hexanoic acid moiety, whereas all peptides contained amidated C-termini. These three peptides were synthesized by Genscript Inc. (Piscataway, NJ, USA), and stock solutions of 1 mg/mL were made from the purchased powders. […] All peptides were diluted to yield a 100 μM final concentration in the hemolysis assays.
(§5) Triton X-100 (T8787) and Tween-20 (P2287) detergents were purchased from Sigma Aldrich and diluted to obtain 10% stock solutions by weighing (w/v). A sodium Dodecyl Sulfate (SDS) 10% solution was purchased from Invitrogen (Waltham, MA, USA, 15553027). All subsequent dilutions annotated in figures were made from these stocks.
(§6) As soon as possible after phlebotomy, the blood samples were centrifuged at 1700× g for 5 min. The supernatant was removed by aspiration and 2 mL of PBS pH 7 was added. The washing step was repeated three times or until the supernatant was clear. After final aspiration, the remaining pellet was diluted 1:100 in PBS pH 7 to obtain a 1% erythrocyte suspension (or 1:100, 1:50, and 1:20 for assays testing the effect of erythrocyte concentration). For experiments using whole blood, the washing steps were not performed, but downstream experimentation was identical. For experiments performed with 96-well plates, 50 μL of test compound, water, or detergent were mixed with 50 μL of blood sample (1% erythrocyte suspension or whole blood). For experiments using larger volumes, 250 μL of test compound, water, or detergent were mixed with 250 μL blood sample in an Eppendorf tube. Samples were subsequently incubated at 37 °C for 60 min (or 15, 30, 60, 90, or 120 min for assays evaluating the effect of incubation time). After incubation, the plates/tubes were centrifuged at 1700× g for 5 min, and then 50 μL of the supernatants were transferred to transparent, flat-bottom 96-well plates (Anicrin, A013418). Finally, absorption was measured at 405, 530, and 570 nm in a Victor Nivo Multimode microplate reader (Perkin Elmer, Waltham, MA, USA).

[4] = system: mouse erythrocytes; details: Table 1, 1% erythrocytes, 100 µM
Excerpt: as §1, §2, §3, §4, §5, §6

[5] = system: rabbit erythrocytes; details: Table S4: washed rabbit erythrocytes, OD 405 nm, AMPs 100 μM, 1 hour 37 °C, pos. 10% Triton X-100, neg. PBS; 3 x 2 replicates
Excerpt: as §1, §2, §3, §4, §5, §6

[6] = system: rat erythrocytes; details: Table S4: washed rat erythrocytes, OD 405 nm, AMPs 100 μM, 1 hour 37 °C, pos. 10% Triton X-100, neg. PBS; 3 x 2 replicates
Excerpt: as §1, §2, §3, §4, §5, §6

[7] = system: E. coli
[8] = cited from earlier work
Description: OD measurements of human whole blood treated with hemolyzing agents or AMPs at 405 nm (A), 530 nm (B), and 570 nm (C) were recorded (Figure 6) and HRs calculated (Table 5). For comparison, we also included the two previously well-characterized AMPs melittin and polymyxin B, which exert high and low cytotoxicity, respectively. […] From 530 and 570 nm measurements, the expected conce ...

[9] = system: washed human erythrocytes; assay: Flow cytometry of treated erythrocytes with live/dead amine-reactive stain; assay type: cell-based; details: washed human erythrocytes treated 60 minutes, AMPs 100 μM, amine-reactive dye 488, flow cytometry 533/30 nm
Description: Briefly, a 1% washed erythrocyte solution was diluted to ~10^5 cells/mL and 0.4% Trypan blue (1:1 ratio) was added before 10 μL of the stained cell suspension was added to the Countess cell counting chamber slide. After a 30 s incubation, the slide was inserted into the instrument for automatic cell counting.
The Countess II automated cell counter (see above) was used to adjust the negative control sample to ~10^5 cells/mL and to subsequently dilute all samples by the same factor. Then, 0.5 μL of live/dead amine-reactive dye 488 (Fisher Scientific, Waltham, MA, USA) was added to 0.5 mL cell suspension and incubated for 30 min protected from light. Subsequently, the samples were washed twice with PBS pH 7 containing 1% bovine serum albumin (BSA), and finally resuspended in PBS pH 7 with 1% BSA. Cells were next counted, and the fluorescence measured using the 533/30 nm filter in an Accuri C6 flow cytometer (BD Biosciences, Franklin Lakes, NJ, USA).

[10] = 10% detergent, highest absorbance
[11] = human individual # 1, 1% erythrocytes, AMPs 100 µM, 60 min 37 °C, 405 nm, pos. 10% Triton X, neg. PBS, 3 x 2 replicates
[12] = human individual # 2, 1% erythrocytes, AMPs 100 µM, 60 min 37 °C, 405 nm, pos. 10% Triton X, neg. PBS, 3 x 2 replicates
[13] = human individual # 3, 1% erythrocytes, AMPs 100 µM, 60 min 37 °C, 405 nm, pos. 10% Triton X, neg. PBS, 3 x 2 replicates
[14] = human individual # 4, 1% erythrocytes, AMPs 100 µM, 60 min 37 °C, 405 nm, pos. 10% Triton X, neg. PBS, 3 x 2 replicates
[15] = human individual # 5, 1% erythrocytes, AMPs 100 µM, 60 min 37 °C, 405 nm, pos. 10% Triton X, neg. PBS, 3 x 2 replicates
[16] = human individual # 6, 1% erythrocytes, AMPs 100 µM, 60 min 37 °C, 405 nm, pos. 10% Triton X, neg. PBS, 3 x 2 replicates
[17] = human individual # 7, 1% erythrocytes, AMPs 100 µM, 60 min 37 °C, 405 nm, pos. 10% Triton X, neg. PBS, 3 x 2 replicates
[18] = human individual # 8, 1% erythrocytes, AMPs 100 µM, 60 min 37 °C, 405 nm, pos. 10% Triton X, neg. PBS, 3 x 2 replicates
[19] = human individual # 9, 1% erythrocytes, AMPs 100 µM, 60 min 37 °C, 405 nm, pos. 10% Triton X, neg. PBS, 3 x 2 replicates
[20] = human individual # 10, 1% erythrocytes, AMPs 100 µM, 60 min 37 °C, 405 nm, pos. 10% Triton X, neg. PBS, 3 x 2 replicates
[21] = OD 405 nm (signal saturated), pos. 10% SDS
[22] = OD 570 nm, pos. 10% Triton X-100 (table title; text says 10% SDS)

Compound: CCCCCCCCCCCCOS(=O)(=O)[O-].[Na+] [SDS, Sodium Dodecyl Sulfate, reference compound]
- Peak OD of free hemoglobin ([1]; at 0.02% detergent, human erythrocytes, decreases at higher concentrations (Figure S3)): 0,8
- Absorbance of free hemoglobin at 530 nm [2, 10]: 2.2
- Absorbance of free hemoglobin at 570 nm [2, 10]: 1.7

Compound: Tween-20 [reference compound]
- Blood clotting in whole blood ([2]; melittin 100 μM): tendency of the blood to clot at higher Tween concentrations

Compound: MNLVDRAILIRKRRRAALQLRDKVLRYLK-NH2 [AMP 1]
- Fold difference in HR at 120 min incubation relative to the shortest incubation times ([1]; 1% washed human erythrocytes, 405 nm, Table 4): 1.65 fold
- Calculated hemolysis ratio [1, 11]: 21.9 ± 4%
- Calculated hemolysis ratio [1, 12]: 23 ± 2.8%
- Calculated hemolysis ratio [1, 13]: 23.7 ± 2.1%
- Calculated hemolysis ratio [1, 14]: 21.3 ± 3%
- Calculated hemolysis ratio [1, 15]: 19.7 ± 3.7%
- Calculated hemolysis ratio [1, 16]: 19.6 ± 4.7%
- Calculated hemolysis ratio [1, 17]: 18.8 ± 4%
- Calculated hemolysis ratio [1, 18]: 21.7 ± 8.6%
- Calculated hemolysis ratio [1, 19]: 22.9 ± 6.8%
- Calculated hemolysis ratio [1, 20]: 25.1 ± 13%
- Observed hemolytic properties (qualitative) ([1]; reason for choice of the AMPs): medium
- Fold decrease of hemolytic effect in rabbit whole blood vs washed rabbit erythrocytes [3]: slightly increased hemolytic effect
- HR in mouse sample compared to rabbit sample [4]: over four times higher
- Hemolysis ratio [5]: 7.1 +/- 1.1%
- Hemolysis ratio [6]: 12.9 +/- 1.7%
- Minimum inhibitory concentration (E. coli) [7]: 2 µM

Compound: Polymyxin B [PMB, reference compound]
- Calculated hemolysis ratio [2, 21]: 3.1 ± 1.1%
- Calculated hemolysis ratio ([2]; OD 530 nm, pos. 10% SDS): 3 ± 2.4%
- Calculated hemolysis ratio [2, 22]: 4.5 ± 1.8%
- Cytotoxicity (qualitative) [8]: low

Compound: O [dH2O, distilled water]
- Calculated hemolysis ratio ([1]; 1% washed human erythrocytes, OD 530 nm, peptides 100 μM, 60 min 37 °C, pos. 10% Triton X-100, neg. PBS, 3 x 2 replicates): 67.6 ± 8.7%
- Calculated Hemolysis (%) ([1]; 2% pooled human erythrocytes, AMPs 100 µM, 60 min 37 °C, 405 nm, pos. 10% Triton X-100, neg. PBS, 3 x 2 replicates): 27.1 ± 2.7%
- Calculated Hemolysis (%) ([1]; 5% pooled human erythrocytes, AMPs 100 µM, 60 min 37 °C, 405 nm, pos. 10% Triton X-100, neg. PBS, 3 x 2 replicates): 22.7 ± 9%
- Calculated hemolysis ratio ([1]; Table 2: pooled blood from all 10 individuals, 1% erythrocytes, AMPs 100 µM, 60 min 37 °C, 405 nm, pos. 10% Triton X, neg. PBS, 3 x 2 replicates): 32.6 ± 7.3%
- Calculated Hemolysis (%) ([1]; Table 3: 1% pooled human erythrocytes, AMPs 100 µM, 60 min 37 °C, 405 nm, pos. 10% Triton X-100, neg. PBS, 3 x 2 replicates): 32.6 ± 7.3%
- Calculated hemolysis ratio ([1]; Table 4: incubation 60 min, 37 °C, 1% human erythrocytes, AMPs 100 µM, 405 nm, pos. 10% Triton X-100, neg. PBS, 3 biological x 2 technical replicates): 37.1 ±14.2%
- Calculated hemolysis ratio ([1]; Table 6: 1% washed human erythrocytes, OD 405 nm, peptides 100 μM, 60 min 37 °C, pos. 10% Triton X-100, neg. PBS, 3 x 2 replicates): 73.9 ± 7.5%
- Calculated hemolysis ratio [1, 11]: 38 ± 12.3%
- Calculated hemolysis ratio [1, 12]: 57.7 ± 12.2%
- Calculated hemolysis ratio [1, 13]: 50.8 ± 8.8%
- Calculated hemolysis ratio [1, 14]: 47.2 ± 5.6%
- Calculated hemolysis ratio [1, 15]: 38.8 ± 12.1%
- Calculated hemolysis ratio [1, 16]: 36.2 ± 10.8%
- Calculated hemolysis ratio [1, 17]: 49.6 ± 15.2%
- Calculated hemolysis ratio [1, 18]: 49.4 ± 16.9%
- Calculated hemolysis ratio [1, 19]: 49.1 ± 22.5%
- Calculated hemolysis ratio [1, 20]: 39.4 ± 10.7%
- Calculated hemolysis ratio ([1]; incubated in polypropylene tubes, 1% washed human erythrocytes, peptides 100 μM, 60 min 37 °C, 405 nm, pos. 10% Triton X-100, neg. PBS, 3 x 2 replicates): 29.5 ± 6%
- Calculated hemolysis ratio ([1]; incubated in polystyrene tubes, 1% washed human erythrocytes, peptides 100 μM, 60 min 37 °C, 405 nm, pos. 10% Triton X-100, neg. PBS, 3 x 2 replicates): 43.1 ± 18.6%
- Calculated hemolysis ratio ([1]; incubation 15 min, 37 °C, 1% human erythrocytes, AMPs 100 µM, 405 nm, pos. 10% Triton X-100, neg. PBS, 3 biological x 2 technical replicates): 32.8 ± 12.1%
- Calculated hemolysis ratio ([1]; incubation 30 min, 37 °C, 1% human erythrocytes, AMPs 100 µM, 405 nm, pos. 10% Triton X-100, neg. PBS, 3 biological x 2 technical replicates): 34.8 ± 12.7%
- Calculated hemolysis ratio ([1]; incubation 90 min, 37 °C, 1% human erythrocytes, AMPs 100 µM, 405 nm, pos. 10% Triton X-100, neg. PBS, 3 biological x 2 technical replicates): 40.1 ±13.9%
- Calculated hemolysis ratio ([1]; incubation 120 min, 37 °C, 1% human erythrocytes, AMPs 100 µM, 405 nm, pos. 10% Triton X-100, neg. PBS, 3 biological x 2 technical replicates): 47 ± 13.6%
- Calculated hemolysis ratio ([1]; total incubation volume 100 μL, 1% washed human erythrocytes, peptides 100 μM, 60 min 37 °C, 405 nm, pos. 10% Triton X-100, neg. PBS, 3 x 2 replicates): 43.1 ± 18.6%
- Calculated hemolysis ratio ([1]; total incubation volume 500 μL, 1% washed human erythrocytes, peptides 100 μM, 60 min 37 °C, 405 nm, pos. 10% Triton X-100, neg. PBS, 3 x 2 replicates): 31.4 ± 10.7%
- Calculated hemolysis ratio [2, 21]: 98.2 ± 0.4%
- Calculated hemolysis ratio ([2]; OD 530 nm, pos. 10% SDS): 38.4 ± 8.5%
- Calculated hemolysis ratio [2, 22]: 62.8 ± 1.4%
- Fluorescence intensity per cell of remaining intact cells (live/dead stain) [9]: low fluorescence
